Measurements reported in patent US20160153991A1, “Synbodies for Detection of Human Norovirus” (priority 2013, published 2016).

Tests used:
Type in all cases: binding, Norovirus
nVLP GII.4 = experiment: Surface plasmon resonance (SPR) screening of optimized peptides against GII.4; conditions: unpurified peptides against nVLP GII.4; for kd-1: SPR dissociation rate; for % Stability / Avg Binding (Spot 1/2): SPR
Protocol: These 96 peptides were synthesized and tested unpurified against GII.4 via surface plasmon resonance (SPR), a sample of which is shown in FIG. 3. Peptides candidates were analyzed and selected for improved binding and slower dissociation rate. Finally, a list of 10 peptide candidates with improved binding and slower dissociation rates were chosen to construct bivalent peptide affinity reagents (synbodies).

GII.4 Sydney VLP = GII.4 Sydney VLP (VP1 identity 95%)
GII.4 Minerva VLP = tested on: GII.4 Minerva VLP

| Substance | kd-1 (nVLP GII.4) [s] | % Stability (nVLP GII.4) [%] | Avg Binding (Spot 1/2) (nVLP GII.4) | Enrichment Factor from 1 ng/μL solution (GII.4 Sydney VLP) | Enrichment Factor from 1 ng/μL solution (GII.4 Minerva VLP; GII.4 Minerva VLP (VP1 identity 100%), 1 ng/μL solution) | enrichment of VLP (in words) (GII.4 Minerva VLP; either GII.4 Minerva or both GII.4 Minerva and GII.4 Sydney) |
| --- | --- | --- | --- | --- | --- | --- |
| VWARKNNKRKKDFNAGWGSC [Mut Peptide-53, optimized peptide] | 0.00408 | 51 | 188.8 |  |  |  |
| RWVRVKLRSHTKLRYIGSC [Mut Peptide-94, optimized peptide] | 0.00294 | 63 | 358.2 |  |  |  |
| AWARSNNSRSKAFNLGWGSC [Mut Peptide-81, optimized peptide] | 0.00455 | 45 | 127.9 |  |  |  |
| SWARSNNKRSKAFNLGWGSC [Mut Peptide-78, optimized peptide] | 0.00431 | 46 | 168.8 |  |  |  |
| Syn 6-6: synbody 6-6 from Table 2; scaffold not stated (Table 2 lists both nVLP6-6-1571 and nVLP6-6MAP2) (RWHRVDLRSHTELPRYIGSC) |  |  |  | n.e. | 16 | enrichment |
| LLYNKTFPHGRWSPSYPGSC [nVLP-1WT] | 0.00785 | 25 | 71.5 |  |  |  |
| RWVRVKLRSHTELNRYIGSC [Mut Peptide-93, optimized peptide] | 0.00332 | 60 | 274.2 |  |  |  |
| RWHRVKLRSHTELNRYIGSC [Mut Peptide-92, optimized peptide] | 0.00355 | 57 | 229.5 |  |  |  |
| RWHRVDLRSHTELPRYIGSC [nVLP-6WT] | 0.00513 | 37 | 175.7 |  |  |  |
| DWARSNTSRSMDFNLGWGSC [nVLP-2WT] | 0.0233 |  | 2.5 |  |  |  |
| DWARKNNKRKMNFNLGWGSC [Mut Peptide-60, optimized peptide] | 0.00487 | 44 | 134.3 |  |  |  |
